Laboratory results reported in PubChem BioAssay AID256 (DTP/NCI, 2004).
“And” between values parts separate entries of the source, which are not always exact repeats. Equal entries are not always repeated. Toxic doses and inconclusive results are not listed.

System: CD2F1 mice, L1210 leukemia ip, survival T/C
Assay: NCI In Vivo Anticancer Drug Screen. Data for tumor model L1210 Leukemia (intraperitoneal) in CD2F1 (CDF1) mice
Conditions: endpoint: mean survival time, higher = longer survival
Method in brief: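 Mice carrying a transplanted tumor received test compound or vehicle alone. The value is the measurement in the treated group divided by that in the vehicle-treated control group.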

[1] = dose: 100.0 mg/kg/injection, schedule: Q04DX003 (ip), vehicle: saline with Tween-80
[2] = dose: 200.0 mg/kg/injection, schedule: Q04DX003 (ip), vehicle: saline with Tween-80
[3] = dose: 400.0 mg/kg/injection, schedule: Q04DX003 (ip), vehicle: saline with Tween-80
[4] = dose: 50.0 mg/kg/injection, schedule: Q01DX009 (ip), vehicle: saline with Tween-80
[5] = dose: 100.0 mg/kg/injection, schedule: Q01DX009 (ip), vehicle: saline with Tween-80
[6] = dose: 200.0 mg/kg/injection, schedule: Q01DX009 (ip), vehicle: saline with Tween-80
[7] = dose: 400.0 mg/kg/injection, schedule: Q01DX009 (ip), vehicle: Klucel (hydroxypropylcellulose) (HPC)
[8] = dose: 400.0 mg/kg/injection, schedule: Q01DX009 (ip), vehicle: saline with Tween-80
[9] = dose: 100.0 mg/kg/injection, schedule: Q01DX009 (ip), vehicle: Klucel (hydroxypropylcellulose) (HPC)
[10] = dose: 200.0 mg/kg/injection, schedule: Q01DX009 (ip), vehicle: Klucel (hydroxypropylcellulose) (HPC)

## N#CC(O)c1ccc([N+](=O)[O-])cc1 (stereo unspecified)
dose: 1.25 mg/kg/injection, schedule: Q04DX002 (ip), vehicle: saline with Tween-80
  T/C: 101 % of control
dose: 2.5 mg/kg/injection, schedule: Q04DX002 (ip), vehicle: saline with Tween-80
  T/C: 101 % of control
dose: 5.0 mg/kg/injection, schedule: Q04DX002 (ip), vehicle: saline with Tween-80
  T/C: 101 % of control
dose: 10.0 mg/kg/injection, schedule: Q04DX002 (ip), vehicle: saline with Tween-80
  T/C: 97 % of control

## COC1=CCc2c(OC)ccc(OC)c2C1
dose: 12.5 mg/kg/injection, schedule: Q01DX009 (ip), vehicle: other
  T/C: 103 % of control
dose: 25.0 mg/kg/injection, schedule: Q01DX009 (ip), vehicle: other
  T/C: 103 % of control
dose: 50.0 mg/kg/injection, schedule: Q01DX009 (ip), vehicle: other
  T/C: 93 % of control
dose: 100.0 mg/kg/injection, schedule: Q01DX009 (ip), vehicle: other
  T/C: 95 % of control
dose: 200.0 mg/kg/injection, schedule: Q01DX009 (ip), vehicle: other
  T/C: 88 % of control

## CC(C)=CC1C(C(=O)OCc2ccc(C)cc2C)C1(C)C (stereo unspecified)
dose: 50.0 mg/kg/injection, schedule: Q01DX001 (ip), vehicle: saline
  T/C: 94 % of control
dose: 100.0 mg/kg/injection, schedule: Q01DX001 (ip), vehicle: saline
  T/C: 91 % of control
dose: 100.0 mg/kg/injection, schedule: Q01DX009 (ip), vehicle: saline
  T/C: 96 % of control
dose: 100.0 mg/kg/injection, schedule: Q04DX003 (ip), vehicle: saline
  T/C: 87 % of control
dose: 200.0 mg/kg/injection, schedule: Q01DX009 (ip), vehicle: saline
  T/C: 96 % of control
dose: 200.0 mg/kg/injection, schedule: Q04DX003 (ip), vehicle: saline
  T/C: 87 % of control
dose: 400.0 mg/kg/injection, schedule: Q01DX001 (ip), vehicle: saline
  T/C: 100 % of control
dose: 400.0 mg/kg/injection, schedule: Q01DX009 (ip), vehicle: saline
  T/C: 102 % of control
dose: 400.0 mg/kg/injection, schedule: Q04DX003 (ip), vehicle: saline
  T/C: 94 % of control

## CCCCN(CCCC)CC(O)c1cc(-c2ccc(Cl)cc2)nc2c(OC)ccc(OC)c12 (stereo unspecified)
[1]
  T/C: 98 % of control
[2]
  T/C: 102 % of control
[3]
  T/C: 98 % of control

## CCOC(=O)/C=C\C1CCCCC1
[4]
  T/C: 93 % of control
[5]
  T/C: 108 % of control
[6]
  T/C: 104 % of control

## CC#CC(=O)SCCNC(=O)CC(C)(C)C
dose: 25.0 mg/kg/injection, schedule: Q01DX009 (ip), vehicle: saline with Tween-80
  T/C: 96 % of control
dose: 25.0 mg/kg/injection, schedule: Q04DX003 (ip), vehicle: saline with Tween-80
  T/C: 105 % of control
[4]
  T/C: 96 % of control
dose: 50.0 mg/kg/injection, schedule: Q04DX003 (ip), vehicle: saline with Tween-80
  T/C: 96 % of control
[5]
  T/C: 95 % of control
[1]
  T/C: 106 % of control
[6]
  T/C: 97 % of control
[2]
  T/C: 98 % of control

## CCCCNC(=O)Nc1cccc2c(O)cccc12
dose: 50.0 mg/kg/injection, schedule: Q01DX009 (ip), vehicle: DMSO
  T/C: 97 % of control

## O=C1CN=C(c2ccccn2)c2cc(Br)ccc2N1
dose: 100.0 mg/kg/injection, schedule: Q04DX003 (ip), vehicle: Klucel (hydroxypropylcellulose) (HPC)
  T/C: 95 % of control
dose: 119.0 mg/kg/injection, schedule: Q01DX009 (ip), vehicle: Klucel (hydroxypropylcellulose) (HPC)
  T/C: 95 % of control
dose: 187.0 mg/kg/injection, schedule: Q01DX009 (ip), vehicle: Klucel (hydroxypropylcellulose) (HPC)
  T/C: 100 % of control
dose: 200.0 mg/kg/injection, schedule: Q04DX003 (ip), vehicle: Klucel (hydroxypropylcellulose) (HPC)
  T/C: 104 % of control
dose: 266.0 mg/kg/injection, schedule: Q01DX009 (ip), vehicle: Klucel (hydroxypropylcellulose) (HPC)
  T/C: 95 % of control
[7]
  T/C: 94 % of control
dose: 400.0 mg/kg/injection, schedule: Q04DX003 (ip), vehicle: Klucel (hydroxypropylcellulose) (HPC)
  T/C: 104 % of control
dose: 600.0 mg/kg/injection, schedule: Q01DX009 (ip), vehicle: Klucel (hydroxypropylcellulose) (HPC)
  T/C: 95 % of control

## Cc1c2cnccc2c(C)c2c1c1ccccc1n2CCNCCO
dose: 50.0 mg/kg/injection, schedule: Q01DX009 (ip), vehicle: saline sonified
  T/C: 113 % of control
dose: 100.0 mg/kg/injection, schedule: Q01DX009 (ip), vehicle: saline sonified
  T/C: 87 % of control

## [CH3][Sn]1([CH3])[O]C2C(CO)OC(n3ccc(N)nc3=O)C2[O]1 (stereo unspecified)
dose: 12.5 mg/kg/injection, schedule: Q01DX005 (ip), vehicle: other
  T/C: 103 % of control
dose: 25.0 mg/kg/injection, schedule: Q01DX005 (ip), vehicle: other
  T/C: 92 % of control
dose: 50.0 mg/kg/injection, schedule: Q01DX005 (ip), vehicle: other
  T/C: 106 % of control

## COc1cc(/C=N/Nc2ccc([N+](=O)[O-])cc2)cc(OC)c1OC
[5]
  T/C: 97 % of control
[6]
  T/C: 94 % of control
[8]
  T/C: 98 % of control

## CCC(O)C(C)[N+](=O)[O-] (stereo unspecified)
[4]
  T/C: 95 % of control
[5]
  T/C: 102 % of control
[6]
  T/C: 95 % of control

## Nc1ccc(S(=O)(=O)Nc2ccccc2C(=O)O)cc1
dose: 37.5 mg/kg/injection, schedule: Q01DX001 (ip), vehicle: saline with Tween-80
  T/C: 102 % of control
dose: 75.0 mg/kg/injection, schedule: Q01DX001 (ip), vehicle: saline with Tween-80
  T/C: 101 % of control
dose: 150.0 mg/kg/injection, schedule: Q01DX001 (ip), vehicle: saline with Tween-80
  T/C: 95 % of control

## CC(=O)OC1OC(C)C(OC(C)=O)C(OC(C)=O)C1NC(=O)N(CCCl)N=O (stereo unspecified)
dose: 17.0 mg/kg/injection, schedule: Q01DX001 (ip), vehicle: saline with Tween-80
  T/C: 508 % of control
dose: 26.0 mg/kg/injection, schedule: Q01DX001 (ip), vehicle: saline with Tween-80
  T/C: 535 % of control
dose: 40.0 mg/kg/injection, schedule: Q01DX001 (ip), vehicle: saline with Tween-80
  T/C: 389 % of control

## N#CC(c1ccc(N)cc1)C(CC(=O)c1ccccc1)c1ccccc1 (stereo unspecified)
dose: 100.0 mg/kg/injection, schedule: Q04DX002 (ip), vehicle: saline with Tween-80
  T/C: 87 % of control and 95 % of control
dose: 200.0 mg/kg/injection, schedule: Q04DX002 (ip), vehicle: saline with Tween-80
  T/C: 91 % of control
dose: 400.0 mg/kg/injection, schedule: Q04DX002 (ip), vehicle: saline with Tween-80
  T/C: 87 % of control and 95 % of control

## O=C(O)CNC(=O)C(CSC(c1ccccc1)(c1ccccc1)c1ccccc1)NC(c1ccccc1)(c1ccccc1)c1ccccc1 (stereo unspecified)
dose: 75.0 mg/kg/injection, schedule: Q01DX001 (ip), vehicle: saline
  T/C: 97 % of control

## COc1cc2cc[n+]3c(C)c4ccc(OC)c(OC)c4cc3c2cc1OC (tested in a mixture with another compound)
dose: 5.0 mg/kg/injection, schedule: Q01DX009 (ip), vehicle: saline
  T/C: 108 % of control
dose: 60.0 mg/kg/injection, schedule: Q01DX009 (ip), vehicle: saline
  T/C: 121 % of control

## Cc1cc(N(CCOS(C)(=O)=O)CCOS(C)(=O)=O)ccc1C=Nc1ccc(-c2nc(Cc3ccccc3)sc2C)cc1
dose: 12.5 mg/kg/injection, schedule: Q01DX009 (ip), vehicle: Klucel (hydroxypropylcellulose) (HPC)
  T/C: 103 % of control and 106 % of control
dose: 25.0 mg/kg/injection, schedule: Q01DX009 (ip), vehicle: Klucel (hydroxypropylcellulose) (HPC)
  T/C: 117 % of control and 124 % of control
dose: 50.0 mg/kg/injection, schedule: Q01DX009 (ip), vehicle: Klucel (hydroxypropylcellulose) (HPC)
  T/C: 117 % of control and 111 % of control
[9]
  T/C: 118 % of control and 120 % of control
[10]
  T/C: 110 % of control
[7]
  T/C: 103 % of control

## Nc1ccc(C(=O)Nc2cccc(S(=O)(=O)F)c2)cc1
dose: 100.0 mg/kg/injection, schedule: Q01DX001 (ip), vehicle: saline with Tween-80
  T/C: 101 % of control
dose: 200.0 mg/kg/injection, schedule: Q01DX001 (ip), vehicle: saline with Tween-80
  T/C: 98 % of control
dose: 400.0 mg/kg/injection, schedule: Q01DX001 (ip), vehicle: saline with Tween-80
  T/C: 93 % of control

## CC(C)C1=CC2=CCC3C(C)(C#N)CCCC3(C)C2CC1CC#N (stereo unspecified)
[5]
  T/C: 92 % of control
[6]
  T/C: 86 % of control
[8]
  T/C: 86 % of control

## Cc1ccc(NC(=O)OCCSC(=O)COc2ccc(Cl)cc2Cl)cc1
[1]
  T/C: 98 % of control
[2]
  T/C: 98 % of control
[3]
  T/C: 93 % of control

## O=C1NN=C2CCCCC12 (stereo unspecified)
[9]
  T/C: 97 % of control
[10]
  T/C: 96 % of control
[7]
  T/C: 102 % of control

## Nc1ncnc2c1ccn2C1OC2COP(=O)(O)OC2C1O (stereo unspecified)
dose: 5.0 mg/kg/injection, schedule: Q01DX001 (ip), vehicle: saline
  T/C: 98 % of control
dose: 10.0 mg/kg/injection, schedule: Q01DX001 (ip), vehicle: saline
  T/C: 102 % of control
dose: 20.0 mg/kg/injection, schedule: Q01DX001 (ip), vehicle: saline
  T/C: 114 % of control
dose: 40.0 mg/kg/injection, schedule: Q01DX001 (ip), vehicle: saline
  T/C: 117 % of control
